The results in this text go back to patent US8029980B2, “Identification and use of agents that modulate oncogenic transcription agent activity” (The Board of Trustees of the University of Illinois, priority 2006, dated 2011).

In assay [1] the test system is Breast cancer cell lines BT-474, MDA-MB-231, T-47D and ZR-75-1. Put plainly: FoxM1 and cleaved caspase-3 immunoblot in breast cancer cell lines. It is filed as cell-based, human. The settings on record: 5 μM, 48 hrs. The procedure:
FIG. 7. […] Breast cancer cell lines BT-474, MDA-MB-231, T-47D and ZR-75-1 were treated with 5 μM Siomycin and thiostrepton, respectively, for 48 hrs and the cell lysates were analyzed for the levels of FoxM1 and cleaved caspase-3 by immunoblotting.
(§1) Immunoblotting was performed as described (18-20) with antibodies specific for p21 (556431; BD Pharmingen), survivin (sc-10811; Santa Cruz), cleaved caspase-3 (9664; Cell Signaling), and β-actin (A5441; Sigma) antibodies. Immunoblot for FoxM1 was done using the previously generated rabbit antisera (2), and phospho-FoxM1 was detected using the MPM2 monoclonal antibody (Upstate Biotechnology) which recognizes the phosphorylated protein sequence phosphoserine/phosphothreonine-proline.
(In general: A western blot detects proteins with antibodies after separation by electrophoresis.)

Assay [2] has as its system Liver cancer cell lines Huh7, Hep-3B and SK-Hep. Put plainly: FoxM1 and cleaved caspase-3 immunoblot in liver cancer cell lines. It is filed as cell-based, human. The following applies: 10 μM, 48 hrs. The procedure:
FIG. 9. […] Liver cancer cell lines Huh7, Hep-3B and SK-Hep were treated with 10 μM Siomycin A and thiostrepton, respectively, for 48 hrs, and the cell lysates were analyzed for the levels of FoxM1 and cleaved caspase-3 by immunoblotting.
as §1
First, we treated liver cancer cell lines Huh7, Hep-3B and SK-Hep that have deleted or mutant p53 with these compounds for 48 hrs, and the cell lysates were analyzed for the levels of FoxM1 and cleaved caspase-3 by immunoblotting.

In assay [3] the test system is NB7 and NB7-casp8 neuroblastoma cells. Put plainly: FoxM1 and cleaved caspase-3 immunoblot in neuroblastoma cells. It is filed as cell-based. The settings on record: 24 hrs. The procedure:
FIG. 11. […] Cells were treated with Siomycin A, thiostrepton or DMSO, harvested 24 hrs later and the lysates were used to determine proteins levels by immunoblotting with antibodies specific for FoxM1, cleaved caspase-3 and β-actin (AS441, Sigma).

Assay [4] addresses T1, FoxM1 (Homo sapiens, UniProt Q08050).
T1 construct: expressed in transfected cells; host or cells: U2OS clone C3 / C3-Luc
T1 sequence (Q08050 1-748 isoform Q08050-2): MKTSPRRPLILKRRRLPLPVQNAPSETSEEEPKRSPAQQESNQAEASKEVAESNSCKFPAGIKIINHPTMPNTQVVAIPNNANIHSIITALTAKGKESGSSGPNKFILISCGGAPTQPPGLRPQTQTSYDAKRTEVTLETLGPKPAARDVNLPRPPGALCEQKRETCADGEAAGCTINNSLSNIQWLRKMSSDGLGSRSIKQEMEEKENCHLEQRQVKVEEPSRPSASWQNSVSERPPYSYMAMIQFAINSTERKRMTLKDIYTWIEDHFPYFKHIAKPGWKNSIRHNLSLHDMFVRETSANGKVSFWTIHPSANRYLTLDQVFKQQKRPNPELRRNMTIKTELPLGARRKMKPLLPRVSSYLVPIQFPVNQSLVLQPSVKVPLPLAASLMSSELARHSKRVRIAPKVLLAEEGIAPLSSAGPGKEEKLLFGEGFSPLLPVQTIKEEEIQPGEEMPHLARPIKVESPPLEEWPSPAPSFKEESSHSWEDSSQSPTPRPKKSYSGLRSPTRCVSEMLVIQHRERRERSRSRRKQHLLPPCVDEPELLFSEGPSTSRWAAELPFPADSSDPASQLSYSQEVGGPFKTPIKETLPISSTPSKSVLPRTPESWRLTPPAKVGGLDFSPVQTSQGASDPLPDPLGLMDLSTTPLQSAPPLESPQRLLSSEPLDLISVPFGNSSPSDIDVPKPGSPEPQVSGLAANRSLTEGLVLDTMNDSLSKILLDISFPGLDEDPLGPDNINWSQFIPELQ
Put plainly: FoxM1-responsive firefly luciferase reporter assay in C3-Luc cells. It is filed as cell-based. The settings on record: C3-Luc cells, 1 μg/mL doxycycline (60-fold induction), 5 μM compound, 24 hrs. The procedure:
FIG. 6. Thiostrepton and Siomycin A both inhibit FoxM1 transcriptional activity. […] The next day, the luciferase activity was measured with the Dual-Luciferase reporter assay system (E1910; Promega) according to the manufacturer's instructions.
The development of U2OS clone C3 cell line with doxycyclin inducible FoxM1-GFP fusion protein has been described before (17). This cell line was transfected with a plasmid expressing firefly luciferase under the control of 6× FoxM1 responsive (FoxRE) promoter (17), along with pcDNA3.1 (Invitrogen, Carlsbad, Calif.) plasmid that expresses neomycin phospho-transferase. […] This clone was further transfected with pRL-CMV (Promega) that expresses renilla luciferase along with pLPCX-puro (Clontech), and the cells were selected in 2 μg/ml puromycin. This cell line which expresses FoxM1-dependent firefly luciferase and constitutive renilla luciferase was named as C3-Luc and used for the screening of compound libraries (Challenge set and Diversity set) from the National Cancer Institute.
For high-throughput screening, the C3-Luc cells were grown in 96-well plates and treated overnight with a combination of 1 μg/ml doxycycline and 10 μM of compounds from the library. Next day, the firefly and renilla luciferase activities were measured with the Dual Glo system (E2940; Promega).
For the other luciferase assay experiments, the cells were treated as indicated in the FIG. 1 legend and the luciferase activity was measured using the Dual Luciferase reporter assay system (E1910; Promega) according to the manufacturer's instructions.
For orientation: A reporter such as luciferase makes a cellular process visible.

The test system of assay [5] is Leukemia cell lines CEM, HL60 and U937. Put plainly: FoxM1 and cleaved caspase-3 immunoblot in leukemia cell lines. The settings on record: 5 μM, 48 hrs. It is filed as cell-based, human. As for the experimental part: FIG. 10. […] Leukemia cell lines CEM, HL60 and U937 were treated with 5 μM Siomycin A and thiostrepton, respectively, for 48 hrs and the cell lysates were analyzed for the levels of FoxM1 and cleaved caspase-3 by immunoblotting.
as §1
Next we treated leukemia cell lines with mutant p53 CEM, HL60 and U937 with 5 μM of these compounds for 48 hrs and the cell lysates were analyzed for the levels of FoxM1 and cleaved caspase-3 by immunoblotting.

Entries after “also recorded” stand apart in the source; their conditions may differ.

In the case of `C=C(NC(=O)C(=C)NC(=O)c1csc(C2=N[C@@H]3c4csc(n4)[C@H]4NC(=O)c5csc(n5)[C@H]([C@](C)(O)[C@@H](C)O)NC(=O)[C@H]5CSC(=N5)/C(=C/C)NC(=O)[C@H]([C@@H](C)O)NC(=O)c5csc(n5)[C@]3(CC2)NC(=O)[C@H](C)NC(=O)C(=C)NC(=O)[C@H](C)NC(=O)[C@H]([C@@H](C)CC)N[C@@H]2C=Cc3c([C@H](C)O)cc(nc3[C@H]2O)C(=O)O[C@@H]4C)n1)C(N)=O` [thiostrepton], the figures for the FoxM1 expression result in assay [1] and in assay [5] were “stronger inhibitor of FoxM1; also recorded: inhibit FoxM1 expression” and “inhibit FoxM1 expression”, respectively. Moreover, the “apoptosis (cleaved caspase-3)” value is “more efficient inducer of apoptosis than Siomycin A; also recorded: induce apoptosis” in assay [1]; “induce apoptosis” in assay [2]; “induce apoptosis in these neuroblastoma cells independently from caspase-8” in assay [3] (NB7 and NB7 with reconstituted caspase-8); “induce apoptosis” in assay [5]. Besides, the FoxM1 protein expression result in assay [2] is “repress FoxM1 protein expression”; in assay [3] (immunoblot), “inhibit FoxM1 protein expression”. Further, the “relative firefly luciferase activity (FoxM1 transcriptional activity)” value in assay [4] was “efficiently reduced the value to basal levels”.
